Numbers after ± are expanded uncertainties.
Legend:
[1] = Molar enthalpy of transition or fusion; conditions: Crystal; DSC
[2] = for molar entropy: 101.33 kPa; for Normal melting temperature: DTA

O[C@H]1[C@H](O)[C@@H](O)[C@H](O)[C@@H](O)[C@H]1O [cis-1,2,3,5-trans-4,6-cyclohexanehexol]
Conditions | Molar enthalpy of transition or fusion [kcal/mol]
[1] | 12 ± 1.7

[2]
Conditions | molar entropy [J/K/mol]
1 K, Crystal, relaxation calorimetry | 0.001133 ± 0.00012
2 K, Crystal, relaxation calorimetry | 0.00457 ± 0.00044
3 K, Crystal, relaxation calorimetry | 0.01283 ± 0.0012
4 K, Crystal, relaxation calorimetry | 0.0288 ± 0.0027
5 K, Crystal, relaxation calorimetry | 0.05587 ± 0.0052
6 K, Crystal, relaxation calorimetry | 0.09786 ± 0.009
7 K, Crystal, relaxation calorimetry | 0.1588 ± 0.015
8 K, Crystal, relaxation calorimetry | 0.2429 ± 0.022
9 K, Crystal, relaxation calorimetry | 0.3528 ± 0.033
10 K, Crystal, relaxation calorimetry | 0.4907 ± 0.045
15 K, Crystal, relaxation calorimetry | 1.619 ± 0.15
20 K, Crystal, relaxation calorimetry | 3.401 ± 0.31
25 K, Crystal, relaxation calorimetry | 5.648 ± 0.52
30 K, Crystal, relaxation calorimetry | 8.19 ± 0.75
35 K, Crystal, relaxation calorimetry | 10.93 ± 1
40 K, Crystal, relaxation calorimetry | 13.82 ± 1.3
45 K, Crystal, relaxation calorimetry | 16.84 ± 1.5
50 K, Crystal, relaxation calorimetry | 19.96 ± 1.8
55 K, Crystal, relaxation calorimetry | 23.14 ± 2.1
60 K, Crystal, relaxation calorimetry | 26.38 ± 2.4
65 K, Crystal, relaxation calorimetry | 29.66 ± 2.7
70 K, Crystal, relaxation calorimetry | 33 ± 3
75 K, Crystal, relaxation calorimetry | 36.38 ± 3.3
80 K, Crystal, relaxation calorimetry | 39.8 ± 3.7
85 K, Crystal, relaxation calorimetry | 43.26 ± 4
90 K, Crystal, relaxation calorimetry | 46.76 ± 4.3
95 K, Crystal, relaxation calorimetry | 50.29 ± 4.6
100 K, Crystal, relaxation calorimetry | 53.84 ± 4.9
110 K, Crystal, relaxation calorimetry | 61.01 ± 5.6
120 K, Crystal, relaxation calorimetry | 68.23 ± 6.3
130 K, Crystal, relaxation calorimetry | 75.5 ± 6.9
140 K, Crystal, relaxation calorimetry | 82.8 ± 7.6
150 K, Crystal, relaxation calorimetry | 90.1 ± 8.3
160 K, Crystal, relaxation calorimetry | 97.42 ± 8.9
170 K, Crystal, relaxation calorimetry | 104.72 ± 9.6
180 K, Crystal, relaxation calorimetry | 112.03 ± 10
190 K, Crystal, relaxation calorimetry | 119.33 ± 11
200 K, Crystal, relaxation calorimetry | 126.62 ± 12
210 K, Crystal, relaxation calorimetry | 133.91 ± 12
220 K, Crystal, relaxation calorimetry | 141.19 ± 13
230 K, Crystal, relaxation calorimetry | 148.47 ± 14
240 K, Crystal, relaxation calorimetry | 155.74 ± 14
250 K, Crystal, relaxation calorimetry | 163.02 ± 15
260 K, Crystal, relaxation calorimetry | 170.3 ± 16
270 K, Crystal, relaxation calorimetry | 177.58 ± 16
273.15 K, Crystal, relaxation calorimetry | 179.88 ± 17
280 K, Crystal, relaxation calorimetry | 184.87 ± 17
290 K, Crystal, relaxation calorimetry | 192.17 ± 18
298.15 K, Crystal, relaxation calorimetry | 198.12 ± 18
300 K, Crystal, relaxation calorimetry | 199.48 ± 18
305 K, Crystal, Small sample (50 mg) DSC | 203.13 ± 43
310 K, Crystal, Small sample (50 mg) DSC | 206.81 ± 44
315 K, Crystal, Small sample (50 mg) DSC | 210.5 ± 44
320 K, Crystal, Small sample (50 mg) DSC | 214.2 ± 45
325 K, Crystal, Small sample (50 mg) DSC | 217.91 ± 46
330 K, Crystal, Small sample (50 mg) DSC | 221.64 ± 47
335 K, Crystal, Small sample (50 mg) DSC | 225.37 ± 48
340 K, Crystal, Small sample (50 mg) DSC | 229.11 ± 48
345 K, Crystal, Small sample (50 mg) DSC | 232.86 ± 49
350 K, Crystal, Small sample (50 mg) DSC | 236.62 ± 50
355 K, Crystal, Small sample (50 mg) DSC | 240.38 ± 51
360 K, Crystal, Small sample (50 mg) DSC | 244.15 ± 52
365 K, Crystal, Small sample (50 mg) DSC | 247.92 ± 52
370 K, Crystal, Small sample (50 mg) DSC | 251.69 ± 53
375 K, Crystal, Small sample (50 mg) DSC | 255.47 ± 54
380 K, Crystal, Small sample (50 mg) DSC | 259.25 ± 55
385 K, Crystal, Small sample (50 mg) DSC | 263.03 ± 56
390 K, Crystal, Small sample (50 mg) DSC | 266.82 ± 56
395 K, Crystal, Small sample (50 mg) DSC | 270.6 ± 57
400 K, Crystal, Small sample (50 mg) DSC | 274.38 ± 58
405 K, Crystal, Small sample (50 mg) DSC | 278.16 ± 59
410 K, Crystal, Small sample (50 mg) DSC | 281.94 ± 60
415 K, Crystal, Small sample (50 mg) DSC | 285.72 ± 60
420 K, Crystal, Small sample (50 mg) DSC | 289.5 ± 61
425 K, Crystal, Small sample (50 mg) DSC | 293.27 ± 62
430 K, Crystal, Small sample (50 mg) DSC | 297.05 ± 63
435 K, Crystal, Small sample (50 mg) DSC | 300.82 ± 63
440 K, Crystal, Small sample (50 mg) DSC | 304.59 ± 64
445 K, Crystal, Small sample (50 mg) DSC | 308.35 ± 65
450 K, Crystal, Small sample (50 mg) DSC | 312.12 ± 66
455 K, Crystal, Small sample (50 mg) DSC | 315.89 ± 67
460 K, Crystal, Small sample (50 mg) DSC | 319.66 ± 67
465 K, Crystal, Small sample (50 mg) DSC | 323.43 ± 68
470 K, Crystal, Small sample (50 mg) DSC | 327.21 ± 69
475 K, Crystal, Small sample (50 mg) DSC | 331 ± 70
480 K, Crystal, Small sample (50 mg) DSC | 334.8 ± 71
485 K, Crystal, Small sample (50 mg) DSC | 338.61 ± 71
490 K, Crystal, Small sample (50 mg) DSC | 342.46 ± 72
495 K, Crystal, Small sample (50 mg) DSC | 346.55 ± 73
510 K, Liquid, Small sample (50 mg) DSC | 453.9 ± 96
515 K, Liquid, Small sample (50 mg) DSC | 458.89 ± 97
520 K, Liquid, Small sample (50 mg) DSC | 463.79 ± 98
525 K, Liquid, Small sample (50 mg) DSC | 468.65 ± 99
530 K, Liquid, Small sample (50 mg) DSC | 473.46 ± 100
535 K, Liquid, Small sample (50 mg) DSC | 478.23 ± 100
540 K, Liquid, Small sample (50 mg) DSC | 482.95 ± 100

Conditions | Normal melting temperature [°C]
[2], Crystal | 224.58 ± 0.61

OC[C@@H](O)[C@@H](O)CO [meso-1,2,3,4-butanetetrol]
Conditions | Molar enthalpy of transition or fusion [kcal/mol]
[1] | 10.7 ± 1.29

[2]
Conditions | molar entropy [J/K/mol]
1 K, Crystal, relaxation calorimetry | 0.0005942 ± 6.7e-05
2 K, Crystal, relaxation calorimetry | 0.002515 ± 0.00024
3 K, Crystal, relaxation calorimetry | 0.007205 ± 0.00068
4 K, Crystal, relaxation calorimetry | 0.01633 ± 0.0015
5 K, Crystal, relaxation calorimetry | 0.03184 ± 0.003
6 K, Crystal, relaxation calorimetry | 0.05604 ± 0.0052
7 K, Crystal, relaxation calorimetry | 0.09153 ± 0.0084
8 K, Crystal, relaxation calorimetry | 0.1411 ± 0.013
9 K, Crystal, relaxation calorimetry | 0.2079 ± 0.019
10 K, Crystal, relaxation calorimetry | 0.2944 ± 0.027
15 K, Crystal, relaxation calorimetry | 1.077 ± 0.099
20 K, Crystal, relaxation calorimetry | 2.466 ± 0.23
25 K, Crystal, relaxation calorimetry | 4.373 ± 0.4
30 K, Crystal, relaxation calorimetry | 6.67 ± 0.61
35 K, Crystal, relaxation calorimetry | 9.244 ± 0.85
40 K, Crystal, relaxation calorimetry | 12.02 ± 1.1
45 K, Crystal, relaxation calorimetry | 14.94 ± 1.4
50 K, Crystal, relaxation calorimetry | 17.96 ± 1.6
55 K, Crystal, relaxation calorimetry | 21.05 ± 1.9
60 K, Crystal, relaxation calorimetry | 24.19 ± 2.2
65 K, Crystal, relaxation calorimetry | 27.37 ± 2.5
70 K, Crystal, relaxation calorimetry | 30.57 ± 2.8
75 K, Crystal, relaxation calorimetry | 33.79 ± 3.1
80 K, Crystal, relaxation calorimetry | 37.01 ± 3.4
85 K, Crystal, relaxation calorimetry | 40.23 ± 3.7
90 K, Crystal, relaxation calorimetry | 43.44 ± 4
95 K, Crystal, relaxation calorimetry | 46.65 ± 4.3
100 K, Crystal, relaxation calorimetry | 49.83 ± 4.6
110 K, Crystal, relaxation calorimetry | 56.17 ± 5.2
120 K, Crystal, relaxation calorimetry | 62.43 ± 5.7
130 K, Crystal, relaxation calorimetry | 68.62 ± 6.3
140 K, Crystal, relaxation calorimetry | 74.74 ± 6.9
150 K, Crystal, relaxation calorimetry | 80.8 ± 7.4
160 K, Crystal, relaxation calorimetry | 86.79 ± 8
170 K, Crystal, relaxation calorimetry | 92.72 ± 8.5
180 K, Crystal, relaxation calorimetry | 98.61 ± 9.1
190 K, Crystal, relaxation calorimetry | 104.44 ± 9.6
200 K, Crystal, relaxation calorimetry | 110.22 ± 10
210 K, Crystal, relaxation calorimetry | 115.97 ± 11
220 K, Crystal, relaxation calorimetry | 121.68 ± 11
230 K, Crystal, relaxation calorimetry | 127.36 ± 12
240 K, Crystal, relaxation calorimetry | 133.01 ± 12
250 K, Crystal, relaxation calorimetry | 138.64 ± 13
260 K, Crystal, relaxation calorimetry | 144.24 ± 13
270 K, Crystal, relaxation calorimetry | 149.82 ± 14
273.15 K, Crystal, relaxation calorimetry | 151.57 ± 14
280 K, Crystal, relaxation calorimetry | 155.38 ± 14
290 K, Crystal, relaxation calorimetry | 160.92 ± 15
298.15 K, Crystal, relaxation calorimetry | 165.43 ± 15
300 K, Crystal, relaxation calorimetry | 166.46 ± 15
305 K, Crystal, Small sample (50 mg) DSC | 169.22 ± 31
310 K, Crystal, Small sample (50 mg) DSC | 172 ± 31
315 K, Crystal, Small sample (50 mg) DSC | 174.78 ± 32
320 K, Crystal, Small sample (50 mg) DSC | 177.57 ± 32
325 K, Crystal, Small sample (50 mg) DSC | 180.36 ± 33
330 K, Crystal, Small sample (50 mg) DSC | 183.15 ± 33
335 K, Crystal, Small sample (50 mg) DSC | 185.94 ± 34
340 K, Crystal, Small sample (50 mg) DSC | 188.74 ± 34
345 K, Crystal, Small sample (50 mg) DSC | 191.53 ± 35
350 K, Crystal, Small sample (50 mg) DSC | 194.32 ± 35
355 K, Crystal, Small sample (50 mg) DSC | 197.11 ± 36
360 K, Crystal, Small sample (50 mg) DSC | 199.9 ± 36
365 K, Crystal, Small sample (50 mg) DSC | 202.7 ± 37
370 K, Crystal, Small sample (50 mg) DSC | 205.49 ± 37
375 K, Crystal, Small sample (50 mg) DSC | 208.29 ± 38
380 K, Crystal, Small sample (50 mg) DSC | 211.1 ± 38
385 K, Crystal, Small sample (50 mg) DSC | 213.99 ± 39
390 K, Crystal, Small sample (50 mg) DSC | 217.51 ± 39
405 K, Liquid, Small sample (50 mg) DSC | 333.59 ± 60
410 K, Liquid, Small sample (50 mg) DSC | 338.24 ± 61
415 K, Liquid, Small sample (50 mg) DSC | 342.55 ± 62
420 K, Liquid, Small sample (50 mg) DSC | 346.8 ± 63
425 K, Liquid, Small sample (50 mg) DSC | 351 ± 64
430 K, Liquid, Small sample (50 mg) DSC | 355.15 ± 64
435 K, Liquid, Small sample (50 mg) DSC | 359.26 ± 65

Conditions | Normal melting temperature [°C]
[2], Crystal | 121.67 ± 0.61

— the NIST ThermoML archive (doi:10.1016/j.jct.2017.08.004)
